This is an account of results in patent US10722514B2 (FLX Bio, Inc., priority 2017, dated 2020).

T1 sequence (Q93009 whole entry): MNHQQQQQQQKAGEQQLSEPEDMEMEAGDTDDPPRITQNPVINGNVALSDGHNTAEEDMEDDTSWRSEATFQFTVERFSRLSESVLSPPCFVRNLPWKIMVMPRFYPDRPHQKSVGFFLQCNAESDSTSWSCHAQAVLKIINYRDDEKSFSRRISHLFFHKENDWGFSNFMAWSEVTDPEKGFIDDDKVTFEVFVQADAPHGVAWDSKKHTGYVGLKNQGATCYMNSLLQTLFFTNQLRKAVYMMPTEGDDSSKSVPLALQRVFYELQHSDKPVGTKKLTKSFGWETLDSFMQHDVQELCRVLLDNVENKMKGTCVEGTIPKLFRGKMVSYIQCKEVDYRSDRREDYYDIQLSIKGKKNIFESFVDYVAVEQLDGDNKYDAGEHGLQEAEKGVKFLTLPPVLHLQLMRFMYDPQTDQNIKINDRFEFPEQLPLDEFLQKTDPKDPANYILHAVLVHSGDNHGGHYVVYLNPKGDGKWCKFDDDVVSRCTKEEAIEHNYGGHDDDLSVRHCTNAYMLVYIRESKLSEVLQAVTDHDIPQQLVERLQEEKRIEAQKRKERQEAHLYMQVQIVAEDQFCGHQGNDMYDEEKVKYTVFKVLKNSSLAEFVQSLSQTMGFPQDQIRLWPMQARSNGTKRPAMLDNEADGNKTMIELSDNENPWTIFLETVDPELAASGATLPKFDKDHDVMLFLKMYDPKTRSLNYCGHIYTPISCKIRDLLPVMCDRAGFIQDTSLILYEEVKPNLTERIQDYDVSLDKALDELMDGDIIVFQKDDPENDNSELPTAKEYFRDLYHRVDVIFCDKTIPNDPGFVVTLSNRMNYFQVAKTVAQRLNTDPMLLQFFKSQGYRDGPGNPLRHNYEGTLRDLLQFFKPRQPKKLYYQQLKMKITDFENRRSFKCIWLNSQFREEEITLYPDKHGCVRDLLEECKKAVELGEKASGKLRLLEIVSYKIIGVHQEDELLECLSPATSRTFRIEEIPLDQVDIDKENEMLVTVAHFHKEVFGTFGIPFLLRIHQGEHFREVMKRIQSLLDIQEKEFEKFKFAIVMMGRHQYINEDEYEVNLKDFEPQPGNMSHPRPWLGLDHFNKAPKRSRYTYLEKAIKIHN

The first test addresses T1, recombinant full-length USP7 (Homo sapiens, UniProt Q93009).
T1 construct: A 25 μl reaction volume containing recombinant full-length USP7 (62 pM)
As to the kind of experiment: USP7-mediated ubiquitin-rhodamine cleavage assay. The class given is biochemical. The note with it: recombinant full-length USP7 62 pM; ubiquitin-rhodamine 100 nM; 30-minute incubation with compound, 1 hour reaction at room temperature; read-out: Potency: USP7 IC50. Put shortly:
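USP7 (62 pM) in 20 mM HEPES pH 7.3, 150 mM NaCl, 1 mM TCEP, 125 μg/ml BSA was preincubated with compound (1% DMSO) for 30 min at room temperature. Ubiquitin-rhodamine (100 nM final) was then added for 1 hour, the reaction stopped with acetic acid, and fluorescence read; IC50 from 4-parameter fit.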
Turning to `Cc1cc(Cl)cc(-c2ccnc3cc(CN4C(=O)CN(C)C4=O)sc23)c1O[C@@H]1CNC[C@@H]1F` [Example 144, 3-((7-(5-Chloro-2-(((3R,4S)-4-fluoropyrrolidin-3-yl)oxy)-3-methylphenyl)thieno[3,2-b]pyridin-2-yl)methyl)-1-methylimidazolidine-2,4-dione], the IC50 fell in the range of 1000 to 10000 nM.
As to `Cc1cc(Cl)cc(-c2ccnc3cc(Cn4c(=O)ccn(CC(F)(F)F)c4=O)sc23)c1OC1CCNC1(C)C` (centres unmarked) [Example 344, 3-[[7-[5-chloro-2-(2,2-dimethylpyrrolidin-3-yl)oxy-3-methyl-phenyl]thieno[3,2-b]pyridin-2-yl]methyl]-1-(2,2,2-trifluoroethyl)pyrimidine-2,4-dione], the IC50 was less than 1000 nM.
Turning to `Cc1cc(Cl)cc(-c2ccnc3cc(CN4CCCCS4(=O)=O)sc23)c1O[C@@H]1CNC[C@@H]1F` [Example 2, 2-((7-(5-Chloro-2-(((3R,4S)-4-fluoropyrrolidin-3-yl)oxy)-3-methylphenyl)thieno[3,2-b]pyridin-2-yl)methyl)-1,2-thiazinane 1,1-dioxide], the IC50 lay within 1000 to 10000 nM.
The same measure, in the same setting: for `CCC(O)c1cc2ncnc(-c3cc(Cl)cc(C)c3OCC3(C)CNC3)c2s1` (centres unmarked) [Example 47, 1-(4-(5-chloro-3-methyl-2-((3-methylazetidin-3-yl)methoxy)phenyl)thieno[3,2-d]pyrimidin-6-yl)propan-1-ol] the value was 1000 to 10000 nM; for `Cc1cc(Cl)cc(-c2ccnc3cc(CN4C(=O)CCC4=O)sc23)c1OC1CCN(C2COC2)CC1` [Example 207, 1-((7-(5-Chloro-3-methyl-2-((1-(oxetan-3-yl)piperidin-4-yl)oxy)phenyl)thieno[3,2-b]pyridin-2-yl)methyl)pyrrolidine-2,5-dione], 1000 to 10000 nM.
On to `CCN1C[C@H](F)[C@H](Oc2c(C)cc(Cl)cc2-c2ccnc3cc(CN4C(=O)C5CC5C4=O)sc23)C1` (stereo partly drawn) [Example 310, 3-[[7-[5-chloro-2-[(3R,4S)-1-ethyl-4-fluoro-pyrrolidin-3-yl]oxy-3-methyl-phenyl]thieno[3,2-b]pyridin-2-yl]methyl]-3-azabicyclo[3.1.0]hexane-2,4-dione], for which the IC50 is less than 1000 nM.
On to `CCN1C[C@H](F)[C@H](Oc2c(C)cc(Cl)cc2-c2ccnc3cc(CN4C(=O)CCC4=O)sc23)C1` [Example 299, 1-[[7-[5-chloro-2-[(3R,4S)-1-ethyl-4-fluoro-pyrrolidin-3-yl]oxy-3-methyl-phenyl]thieno[3,2-b]pyridin-2-yl]methyl]pyrrolidine-2,5-dione], for which the IC50 was less than 1000 nM.
Same read-out and setting: with `Cc1cc(Cl)cc(-c2ccnc3ccsc23)c1OC1CC2CNC1C2` (centres unmarked) [Example 171, 7-(2-((2-Azabicyclo[2.2.1]heptan-6-yl)oxy)-5-chloro-3-methylphenyl)thieno[3,2-b]pyridine] the figure was 10000 to 30000 nM; with `Cc1cc(Cl)cc(-c2ccnc3cc(CN4C(=O)CCC4=O)sc23)c1OC1CCNC1C` (centres unmarked) [Example 118, 1-((7-(5-Chloro-3-methyl-2-((2-methylpyrrolidin-3-yl)oxy)phenyl)thieno[3,2-b]pyridin-2-yl)methyl)pyrrolidine-2,5-dione], less than 1000 nM; with `CCC(O)c1cc2nccc(-c3cc(Cl)cc(C)c3OC(C)C3CNC3)c2s1` (centres unmarked) [Example 34, 1-(7-(2-(1-(Azetidin-3-yl)ethoxy)-5-chloro-3-methylphenyl)thieno[3,2-b]pyridin-2-yl)propan-1-ol], 10000 to 30000 nM.

Staying with this test, now noted: recombinant full-length USP7 62 pM; ubiquitin-rhodamine 100 nM; 30-minute incubation, 1 hour reaction at room temperature; read-out: Potency (USP7 IC50).
With `Cc1cc(Cl)cc(-c2ccnc3cc(Cn4c(=O)ccn(CC(F)(F)F)c4=O)sc23)c1OC1CC(N2CCC[C@H]2CF)C1` (stereo partly drawn) [Example 687, 3-[[7-[5-chloro-2-[3-[(2S)-2-(fluoromethyl)pyrrolidin-1-yl]cyclobutoxy]-3-methyl-phenyl]thieno[3,2-b]pyridin-2-yl]methyl]-1-(2,2,2-trifluoroethyl)pyrimidine-2,4-dione; 2,2,2-trifluoroacetic acid], the IC50 was less than 1000 nM.

Staying with this test, now noted: recombinant full-length USP7 62 pM; ubiquitin-rhodamine 100 nM; 30-minute pre-incubation, 1 hour reaction at room temperature; read-out: Potency (USP7 IC50).
For the compound `CCn1ccc(=O)n(Cc2cc3ncnc(-c4cc(Cl)cc(C)c4O[C@H]4CCCNC4)c3s2)c1=O` [Example 440, 3-[[4-[5-chloro-3-methyl-2-[[(3S)-3-piperidyl]oxy]phenyl]thieno[3,2-d]pyrimidin-6-yl]methyl]-1-ethyl-pyrimidine-2,4-dione; 2,2,2-trifluoroacetic acid], the IC50 was less than 1000 nM.
In the case of `Cc1cc(Cl)cc(-c2ccnc3cc(Cn4c(=O)ccn(CC(F)(F)F)c4=O)sc23)c1O[C@@H]1CCN(C(=O)C(F)(F)F)C[C@@H]1C` [Example 609, 3-[[7-[5-chloro-3-methyl-2-[[(3S,4R)-3-methyl-1-(2,2,2-trifluoroacetyl)-4-piperidyl]oxy]phenyl]thieno[3,2-b]pyridin-2-yl]methyl]-1-(2,2,2-trifluoroethyl)pyrimidine-2,4-dione], the IC50 is less than 1000 nM.
Consider `Cc1cc(Cl)cc(-c2ccnc3cc(Cn4c(=O)ccn(CC(F)(F)F)c4=O)sc23)c1O[C@@H]1CN[C@@H](C(C)(C)O)C1` [Example 635, 3-[[7-[5-chloro-2-[(3S,5R)-5-(1-hydroxy-1-methyl-ethyl)pyrrolidin-3-yl]oxy-3-methyl-phenyl]thieno[3,2-b]pyridin-2-yl]methyl]-1-(2,2,2-trifluoroethyl)pyrimidine-2,4-dione], for which the IC50 is less than 1000 nM.
As for `Cc1cc(Cl)cc(-c2ccnc(CCCN3C(=O)CCC3=O)c2)c1OC1CCNCC1` [Example 410, 1-[3-[4-[5-chloro-3-methyl-2-(4-piperidyloxy)phenyl]-2-pyridyl]propyl]pyrrolidine-2,5-dione; 2,2,2-trifluoroacetic acid], the IC50 lay within 1000 to 10000 nM.
On the same count and under the same terms, for `Cc1cc(Cl)cc(-c2ccnc3cc(Cn4c(=O)ccn(C)c4=O)sc23)c1O[C@@H]1CCN(CCO)C[C@@H]1C` [Example 475, 3-[[7-[5-chloro-2-[[(3S,4R)-1-(2-hydroxyethyl)-3-methyl-4-piperidyl]oxy]-3-methyl-phenyl]thieno[3,2-b]pyridin-2-yl]methyl]-1-methyl-pyrimidine-2,4-dione] the value was less than 1000 nM.
As to `Cc1cc(Cl)cc(-c2ccnc3cc(Cn4c(=O)ccn(CC(F)(F)F)c4=O)sc23)c1O[C@@H]1CCNC[C@H]1C` [Example 558, 3-[[7-[5-chloro-3-methyl-2-[[(3R,4R)-3-methyl-4-piperidyl]oxy]phenyl]thieno[3,2-b]pyridin-2-yl]methyl]-1-(2,2,2-trifluoroethyl)pyrimidine-2,4-dione], the IC50 was less than 1000 nM.
Turning to `Cc1cc(Cl)cc(-c2ccnc3cc(Cn4c(=O)ccn(CC(F)(F)F)c4=O)sc23)c1O[C@@H]1CCNC[C@@H]1C` [Example 549, 3-[[7-[5-chloro-3-methyl-2-[[(3S,4R)-3-methyl-4-piperidyl]oxy]phenyl]thieno[3,2-b]pyridin-2-yl]methyl]-1-(2,2,2-trifluoroethyl)pyrimidine-2,4-dione], the IC50 was less than 1000 nM.
On the same count and under the same terms, for `Cc1cc(Cl)cc(-c2ccnc3cc(Cn4c(=O)ccn(C)c4=O)sc23)c1O[C@@H]1CCN[C@H]1C(=O)O` [Example 602, (2R,3R)-3-[4-chloro-2-methyl-6-[2-[(3-methyl-2,6-dioxo-pyrimidin-1-yl)methyl]thieno[3,2-b]pyridin-7-yl]phenoxy]pyrrolidine-2-carboxylic acid] the value was less than 1000 nM; for `Cc1cc(Cl)cc(-c2ccnc3cc(Cn4c(=O)ccn(C)c4=O)sc23)c1O[C@@H]1CNC[C@H](F)C1` [Example 497, 3-[[7-[5-chloro-2-[[(3S,5R)-5-fluoro-3-piperidyl]oxy]-3-methyl-phenyl]thieno[3,2-b]pyridin-2-yl]methyl]-1-methyl-pyrimidine-2,4-dione], less than 1000 nM.
